Test results reported in publication PMC11211543, “Molecular mimicry of SARS-COV-2 antigens as a possible natural anti-cancer preventive immunization” (Frontiers in Immunology, 2024).

How the values were obtained:
[1] = tested on: CD3+/CD8+ T cells of PBMCs from vaccinated donors; assay type: cell-based, human; details: for percentage of circulating reacting CD8+ T cells specific to the homologous TAA epitope, average: TAAs paired to non-spike epitopes; for sum of the reactivities of all subjects for the epitope pair: value of the pair viral epitope/TAA; for percentage of circulating reacting CD8+ T cells specific to the spike peptide, average: PBMCs from 7 vaccinated donors stimulated ex vivo 3 days with the Spike peptide, Dextramer loaded with the same viral peptide
[2] = tested on: CD3+/CD8+ T cells of PBMCs from healthy vaccinated donors; test: pMHC multimer (tetramer) T cell staining; assay type: cell-based, human; details: MHC-class I tetramer staining
[3] = tested on: PBMCs from HLA-A*02:01–positive individuals; test: IFN-γ ELISpot assay; assay type: cell-based, human; details: 10 μg/mL peptide, 3×10^5 PBMCs per well, 20 hours, 37°C; SFU per 10^6 PBMCs; mean of subjects, triplicate tests averaged
CD8+ T cell = details: 59 Spike epitopes, different HLA alleles; cited from earlier work
From the text: We have recently assessed T cell reactivity against 59 epitopes predicted in the Spike protein associated to different HLA alleles, covering both the S1 and S2 subunits. In particular, 11 were associated with the HLA-A*02:01 and only three were located in the S1 subunit, namely […] at position 62 and […] at position 269 in the NTD region; […] at position 512 in the RBD region.

Sequence: ALLALTSAV [reference compound]
- percentage of circulating reacting CD8+ T cells specific to the homologous TAA epitope, average [1]: 1.34%
- sum of the reactivities of all subjects for the epitope pair [1]: > 9 % of the total circulating T cells

Sequence: FVGEFFTDV [reference compound]
- percentage of circulating reacting CD8+ T cells specific to the homologous TAA epitope, average [1]: 0.36%

Sequence: HLMSFPQSA
- percentage of circulating reacting CD8+ T cells specific to the spike peptide, average [1]: 0.8%

Sequence: KIADYNYKL [Wuhan, Alpha, Delta]
- percentage of circulating CD8+ T cells specific for the peptide, average [2]: 0,18%
- IFN-γ ELISpot, average over subjects [3]: 9.8 SFU

Sequence: KLLEEWNLV
- sum of the reactivities of all subjects for the epitope pair [1]: ~ 6 % of the total circulating T cells

Sequence: LTDEMIAQY [reference compound]
- IFN-γ ELISpot, average over subjects [3]: 10.8 SFU

Sequence: NYNYLYRLF [reference compound]
- immunodominance of CD8+ T cell memory response (CD8+ T cell): strongest immunodominance

Sequence: RLLQETELV [reference compound]
- sum of the reactivities of all subjects for the epitope pair [1]: ~ 6 % of the total circulating T cells

Sequence: VLLSMQGAV
- sum of the reactivities of all subjects for the epitope pair [1]: > 9 % of the total circulating T cells

Sequence: VLNDIFSRL
- percentage of circulating reacting CD8+ T cells specific to the spike peptide, average [1]: 1.04%

Sequence: YLQPRTFLL
- immunodominance of CD8+ T cell memory response (CD8+ T cell): strongest immunodominance
- percentage of circulating CD8+ T cells specific for the peptide, average [2]: 1,23%
- IFN-γ ELISpot, average over subjects [3]: 87.9 SFU
